Where two headings read alike, the source gives them in different places.
Legend:
CaV1.2 channels [1] = target: T1, CaV1.2 channels (Homo sapiens, UniProt Q13936); conditions: CaV1.2, CHO cells, CiPA protocol
CaV1.2 channels [2] = target: T1, CaV1.2 channels; conditions: CaV1.2, CHO cells, Pharm protocol
[3] = tested on: adult human ventricular trabeculae; test: Ex vivo sharp electrode action potential recording (APD90) in ventricular trabeculae, 1 Hz pacing; conditions: for Change in APD90 (in words): over the tested concentrations; for Mean ΔAPD90 (SEM): 25 min steady 1 Hz pacing
hERG (IKr) = hERG (IKr) (Homo sapiens, UniProt Q12809); test: Automated patch clamp, IKr Pharm (Roche in-house) protocol, CHO cells; conditions: human
CaV1.2 (ICaL) = CaV1.2 (ICaL) (Homo sapiens, UniProt Q13936); test: in vitro; conditions: CHO cells expressing human CaV1.2/β2/α2δ
hERG channels [4] = target: T2, hERG channels (Homo sapiens, UniProt Q12809); test: Automated patch clamp, IKr CiPA protocol, CHO cells; type: cell-based; set-up: expressed in transfected cells; host or cells: CHO (crelox)
T2 sequence (Q12809 whole entry): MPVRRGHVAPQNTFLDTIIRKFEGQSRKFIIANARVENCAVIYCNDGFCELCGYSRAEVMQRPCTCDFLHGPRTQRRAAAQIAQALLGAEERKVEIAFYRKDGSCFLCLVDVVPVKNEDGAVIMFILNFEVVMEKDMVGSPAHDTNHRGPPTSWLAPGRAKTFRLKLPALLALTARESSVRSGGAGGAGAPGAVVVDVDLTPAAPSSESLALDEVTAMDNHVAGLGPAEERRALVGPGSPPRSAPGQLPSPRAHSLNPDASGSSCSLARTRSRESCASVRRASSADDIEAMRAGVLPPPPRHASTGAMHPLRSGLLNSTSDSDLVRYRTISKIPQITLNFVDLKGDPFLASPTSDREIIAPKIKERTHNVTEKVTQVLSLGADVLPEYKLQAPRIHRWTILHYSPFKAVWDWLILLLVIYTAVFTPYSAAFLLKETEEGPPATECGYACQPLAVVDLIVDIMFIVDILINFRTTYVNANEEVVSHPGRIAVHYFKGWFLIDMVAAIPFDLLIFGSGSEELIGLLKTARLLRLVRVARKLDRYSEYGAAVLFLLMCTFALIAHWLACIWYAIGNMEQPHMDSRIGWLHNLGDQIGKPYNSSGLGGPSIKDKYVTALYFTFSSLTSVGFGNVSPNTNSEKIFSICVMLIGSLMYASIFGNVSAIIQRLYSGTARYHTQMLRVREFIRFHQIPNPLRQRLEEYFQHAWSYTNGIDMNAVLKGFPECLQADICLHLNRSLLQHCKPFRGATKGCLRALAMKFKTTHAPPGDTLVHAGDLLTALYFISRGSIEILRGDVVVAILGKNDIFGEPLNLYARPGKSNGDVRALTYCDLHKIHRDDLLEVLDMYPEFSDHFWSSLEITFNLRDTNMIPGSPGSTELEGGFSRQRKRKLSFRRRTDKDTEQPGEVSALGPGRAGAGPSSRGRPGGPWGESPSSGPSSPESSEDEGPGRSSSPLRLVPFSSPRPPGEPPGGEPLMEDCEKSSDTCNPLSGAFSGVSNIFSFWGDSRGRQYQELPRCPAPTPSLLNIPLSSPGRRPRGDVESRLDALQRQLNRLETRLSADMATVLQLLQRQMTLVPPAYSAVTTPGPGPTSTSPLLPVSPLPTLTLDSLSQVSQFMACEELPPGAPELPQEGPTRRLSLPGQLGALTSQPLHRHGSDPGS

hERG = conditions: cited from earlier work
CaV1.2 channels [5] = target: T1, CaV1.2 channels; test: cell-based
hERG channels [6] = target: T2, hERG channels; test: Automated patch clamp, IKr Pharm (Roche in-house) protocol, CHO cells; conditions: hERG, CHO cells, Pharm protocol
CaV1.2 channels [7] = target: T1, CaV1.2 channels; test: cell-based; remark: listed apart in the source

T1 sequence (Q13936 whole entry): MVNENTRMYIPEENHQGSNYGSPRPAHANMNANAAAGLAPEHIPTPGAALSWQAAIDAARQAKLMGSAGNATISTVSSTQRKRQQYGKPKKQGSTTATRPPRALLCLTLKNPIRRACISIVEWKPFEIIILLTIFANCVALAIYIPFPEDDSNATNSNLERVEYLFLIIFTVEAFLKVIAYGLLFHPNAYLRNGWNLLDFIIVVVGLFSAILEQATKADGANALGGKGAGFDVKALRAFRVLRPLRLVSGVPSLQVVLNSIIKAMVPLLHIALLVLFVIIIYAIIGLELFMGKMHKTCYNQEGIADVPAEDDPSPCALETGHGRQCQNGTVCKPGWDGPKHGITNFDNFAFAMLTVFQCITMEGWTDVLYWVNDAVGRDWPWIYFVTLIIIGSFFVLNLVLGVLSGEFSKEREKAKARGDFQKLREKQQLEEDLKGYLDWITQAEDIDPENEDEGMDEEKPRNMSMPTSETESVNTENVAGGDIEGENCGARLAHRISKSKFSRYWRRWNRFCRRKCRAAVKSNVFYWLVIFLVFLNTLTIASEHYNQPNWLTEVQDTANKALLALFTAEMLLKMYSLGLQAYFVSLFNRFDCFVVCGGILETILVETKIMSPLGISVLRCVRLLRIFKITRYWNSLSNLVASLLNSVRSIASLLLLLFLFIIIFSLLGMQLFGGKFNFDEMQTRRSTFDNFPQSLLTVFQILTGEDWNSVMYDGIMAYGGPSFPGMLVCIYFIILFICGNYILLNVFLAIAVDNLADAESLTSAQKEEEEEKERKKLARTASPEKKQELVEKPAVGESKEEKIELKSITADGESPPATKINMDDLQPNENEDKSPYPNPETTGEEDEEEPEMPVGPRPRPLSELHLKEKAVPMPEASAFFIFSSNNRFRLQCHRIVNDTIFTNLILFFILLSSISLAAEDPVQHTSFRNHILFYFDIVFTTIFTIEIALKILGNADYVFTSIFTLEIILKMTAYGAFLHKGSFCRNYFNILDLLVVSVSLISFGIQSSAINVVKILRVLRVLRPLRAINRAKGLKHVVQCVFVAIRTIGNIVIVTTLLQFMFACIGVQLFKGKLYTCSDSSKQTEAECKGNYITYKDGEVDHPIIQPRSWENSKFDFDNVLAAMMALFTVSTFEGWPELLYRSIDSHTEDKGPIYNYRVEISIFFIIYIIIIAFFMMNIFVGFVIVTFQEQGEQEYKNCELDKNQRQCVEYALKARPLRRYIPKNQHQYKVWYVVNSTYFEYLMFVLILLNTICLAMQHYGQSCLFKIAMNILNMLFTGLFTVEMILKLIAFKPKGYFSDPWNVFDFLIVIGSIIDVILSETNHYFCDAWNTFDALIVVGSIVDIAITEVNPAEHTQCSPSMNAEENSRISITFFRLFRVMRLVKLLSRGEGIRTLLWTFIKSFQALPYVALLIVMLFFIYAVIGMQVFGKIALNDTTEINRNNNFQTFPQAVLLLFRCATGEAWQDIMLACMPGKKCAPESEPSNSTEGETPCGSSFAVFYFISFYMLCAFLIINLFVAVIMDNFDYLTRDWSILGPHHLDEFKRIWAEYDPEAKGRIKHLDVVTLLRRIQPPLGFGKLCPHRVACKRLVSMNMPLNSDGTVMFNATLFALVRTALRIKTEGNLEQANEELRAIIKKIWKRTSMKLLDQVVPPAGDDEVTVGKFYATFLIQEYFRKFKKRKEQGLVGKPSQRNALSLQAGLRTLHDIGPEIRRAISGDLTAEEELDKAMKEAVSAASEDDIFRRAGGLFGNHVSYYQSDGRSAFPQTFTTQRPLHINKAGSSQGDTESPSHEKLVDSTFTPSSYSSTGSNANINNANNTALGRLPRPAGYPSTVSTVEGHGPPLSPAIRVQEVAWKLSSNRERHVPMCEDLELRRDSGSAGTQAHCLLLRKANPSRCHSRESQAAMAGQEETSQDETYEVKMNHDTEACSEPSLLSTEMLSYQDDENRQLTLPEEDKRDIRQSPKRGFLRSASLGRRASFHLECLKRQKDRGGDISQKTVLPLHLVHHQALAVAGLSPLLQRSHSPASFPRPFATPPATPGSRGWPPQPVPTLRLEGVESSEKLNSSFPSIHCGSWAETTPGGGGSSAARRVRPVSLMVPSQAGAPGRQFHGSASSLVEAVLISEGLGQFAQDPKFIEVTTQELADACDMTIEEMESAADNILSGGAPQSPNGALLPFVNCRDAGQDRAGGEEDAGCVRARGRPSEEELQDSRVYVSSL
T1 sequence (Q08289 whole entry partner): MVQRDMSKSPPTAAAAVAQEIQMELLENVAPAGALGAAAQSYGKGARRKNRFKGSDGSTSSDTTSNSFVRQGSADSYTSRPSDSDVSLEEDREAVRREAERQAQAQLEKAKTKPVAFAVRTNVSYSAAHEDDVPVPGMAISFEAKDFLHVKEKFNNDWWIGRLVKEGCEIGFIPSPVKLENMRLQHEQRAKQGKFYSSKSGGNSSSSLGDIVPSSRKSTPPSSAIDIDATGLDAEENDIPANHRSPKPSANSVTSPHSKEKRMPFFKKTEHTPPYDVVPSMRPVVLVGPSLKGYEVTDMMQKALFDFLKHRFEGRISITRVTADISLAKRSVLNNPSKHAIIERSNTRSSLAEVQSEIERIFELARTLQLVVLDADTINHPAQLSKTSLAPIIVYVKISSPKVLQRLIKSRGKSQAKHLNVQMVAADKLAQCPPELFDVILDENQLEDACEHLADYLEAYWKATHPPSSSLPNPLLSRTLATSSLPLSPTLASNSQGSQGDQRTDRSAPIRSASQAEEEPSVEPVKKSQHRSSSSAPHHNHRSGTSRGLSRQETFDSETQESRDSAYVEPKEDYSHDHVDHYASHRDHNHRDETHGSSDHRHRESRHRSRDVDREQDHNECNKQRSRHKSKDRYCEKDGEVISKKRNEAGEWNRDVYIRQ
T1 sequence (P54289 25-956 partner limits assumed): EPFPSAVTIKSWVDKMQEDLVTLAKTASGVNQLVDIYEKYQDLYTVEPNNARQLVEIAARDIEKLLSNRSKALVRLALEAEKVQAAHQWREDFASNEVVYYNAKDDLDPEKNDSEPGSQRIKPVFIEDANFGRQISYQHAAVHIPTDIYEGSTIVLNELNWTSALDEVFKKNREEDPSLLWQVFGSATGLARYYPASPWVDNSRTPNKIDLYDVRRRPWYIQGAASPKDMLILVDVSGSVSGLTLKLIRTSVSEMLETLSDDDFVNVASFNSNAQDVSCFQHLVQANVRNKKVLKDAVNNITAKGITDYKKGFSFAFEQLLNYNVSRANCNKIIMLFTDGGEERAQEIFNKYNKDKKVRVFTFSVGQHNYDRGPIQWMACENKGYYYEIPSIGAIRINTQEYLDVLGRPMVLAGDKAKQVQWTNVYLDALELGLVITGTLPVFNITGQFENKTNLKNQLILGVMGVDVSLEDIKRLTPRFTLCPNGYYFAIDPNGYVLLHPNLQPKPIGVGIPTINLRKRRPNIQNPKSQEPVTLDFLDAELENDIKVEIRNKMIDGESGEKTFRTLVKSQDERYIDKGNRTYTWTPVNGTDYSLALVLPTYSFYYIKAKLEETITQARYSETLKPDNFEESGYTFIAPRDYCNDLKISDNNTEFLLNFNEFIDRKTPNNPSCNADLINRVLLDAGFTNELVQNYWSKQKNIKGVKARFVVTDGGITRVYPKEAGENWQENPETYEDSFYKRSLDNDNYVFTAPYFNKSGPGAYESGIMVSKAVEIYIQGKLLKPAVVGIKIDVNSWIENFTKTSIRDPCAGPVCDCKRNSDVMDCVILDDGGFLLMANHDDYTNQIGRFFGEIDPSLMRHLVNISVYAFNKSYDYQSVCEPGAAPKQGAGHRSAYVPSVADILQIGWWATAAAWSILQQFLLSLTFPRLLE
T1 sequence (P54289 957-1103 partner limits assumed): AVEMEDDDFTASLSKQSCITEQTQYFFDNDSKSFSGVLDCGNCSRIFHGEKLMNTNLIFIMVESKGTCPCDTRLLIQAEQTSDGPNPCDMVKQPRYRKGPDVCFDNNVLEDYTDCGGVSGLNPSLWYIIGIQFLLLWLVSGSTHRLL

With `CN(C)CCCN1c2ccccc2Sc2ccc(Cl)cc21` [Chlorpromazine] the “ICaL CiPA Hill coefficient h” value (CaV1.2 channels [1]) was 0.93, the “ICaL Pharm Hill coefficient h” value (CaV1.2 channels [2]) was 0.88 and the “Change in APD90 (in words)” value [3] was “little or no change in APD90”.

For `CN1CCN(C2=Nc3cc(Cl)ccc3Nc3ccccc32)CC1` [Clozapine], the inhibition at 3 µM (hERG (IKr)) was 57%, the inhibition at 3 µM (CaV1.2 (ICaL)) was 59% and the “Change in APD90 (in words)” value [3] was “little or no change in APD90”. The “IKr CiPA Hill coefficient h” value (hERG channels [4]; human) was 0.94.

In the case of `CNCCC(Oc1ccc(C(F)(F)F)cc1)c1ccccc1` (centres unmarked) [Fluoxetine], the “ICaL CiPA Hill coefficient h” value (CaV1.2 channels [1]) is reported as 0.90, the “ICaL Pharm Hill coefficient h” value (CaV1.2 channels [2]) is reported as 0.94 and the “Mean ΔAPD90 (SEM)” value ([3]; nominal drug conc 3 μM) is reported as “–2 (5) ms”. The “Change in APD90 (in words)” value [3] was “little or no change in APD90”.

In the case of `CN1CCCCC1CCN1c2ccccc2Sc2ccc([S+](C)[O-])cc21` (centres unmarked) [Mesoridazine], the IC50 (CaV1.2 channels [5]) is reported as 3.96 µM, the “ICaL CiPA Hill coefficient h” value (CaV1.2 channels [1]) is reported as 0.83 and the “IKr Pharm Hill coefficient h” value (hERG channels [6]) is reported as 1. The “ICaL Pharm Hill coefficient h” value (CaV1.2 channels [2]) was 0.76, the IC50 (CaV1.2 channels [7]) was 4.06 µM and the “Mean ΔAPD90 (SEM)” value ([3]; nominal drug conc 0.04 μM) was “–2 (7) ms”. For the same compound, the “Change in APD90 (in words)” value [3] was “little or no change in APD90” and the “IKr CiPA Hill coefficient h” value (hERG channels [4]; hERG, CHO cells, CiPA protocol) was 0.74.

For `COC(=O)C1=C(C)NC(C)=C(C(=O)OC)C1c1ccccc1[N+](=O)[O-]` [Nifedipine], the “Mean ΔAPD90 (SEM)” value ([3]; nominal drug conc 0.03 μM) was “–5 (6) ms” and the “Mean ΔAPD90 (SEM)” value ([3]; nominal drug conc 0.3 μM) was “–24 (6) ms”.

For `COc1ccc(CCN(C)CCCC(C#N)(c2ccc(OC)c(OC)c2)C(C)C)cc1OC` (centres unmarked) [Verapamil], the “Mean ΔAPD90 (SEM)” value ([3]; nominal drug conc 0.01 μM) was “–15 (4) ms”, the “Mean ΔAPD90 (SEM)” value ([3]; nominal drug conc 0.1 μM) was “–19 (5) ms” and the “Change in APD90 (in words)” value [3] was “substantially shortened APD90”.

Source: publication PMC12251226, “Comparison of in silico predictions of action potential duration in response to inhibition of IKr and ICaL with new human ex vivo recordings” (PLOS Computational Biology, 2025)
